Experimental data reported in patent US7304084B2, “6-[(4,5-Dihydro-1H-imidazol-2-yl)amino]-7-methyl-1H-benzimidazole-4-carbonitrile and its preferred salt” (The Board of Regents of the University of Nebraska, priority 2003, dated 2007).
In brackets after ≈: the same amount, converted by molar mass. Structures can show the parent of a compound that is named as a salt. Where two headings read alike, the source gives them in different places.

Tests used:
[1] = Solubility in water at ambient temperature (saturated solution, supernatant by quantitative HPLC); assay type: physicochemical
Experimental: One such technique is to prepare a saturated solution of the salt form by shaking a suspension of the salt form in water, until a saturated solution is obtained. The saturated solution is then centrifuged and the concentration of the supernatant is determined by quantitative HPLC analysis. A suitable HPLC method is described in Example 1.

[2] = Ames Test dose/response studies; assay type: cell-based; conditions: impurity (2) present in compound (1) and its various salt forms
Source text: [drawing 10] is produced in pharmaceutically unacceptable levels using these previous methods. Based on dose/response studies using an Ames Test, the mutagenic impurity (2) is shown to elicit a positive response when present at level about 1 ppm (parts per million) in 6-[(4,5-Dihydro-1H-imidazol-2-yl)amino-]-7-methyl-1H-benzimidazole-4-carbonitrile (1) and its various salt forms. Low levels of this phenazine impurity can be detected by those methods well known in the art such as HPLC with fluorescence detection. Suitable examples of such assays are described in Examples 1, 2, and 3 herein. A suitable preparation of labeled ^15N4-2,3,7-Triamino-4,6-dimethyl-1,9-phenazinedicarbonitrile is described in Example 4 herein. A suitable preparation of non-labeled 2,3,7-Triamino-4,6-dimethyl-1,9-phenazinedicarbonitrile is described in Example 19 herein. III. Methods of Making Intermediate of Formula (II)

Structure (SMILES): CC(=O)O.Cc1c(NC2=NCCN2)cc(C#N)c2nc[nH]c12 [Acetate Salt Form, 6-[(4,5-Dihydro-1H-imidazol-2-yl)amino-]-7-methyl-1H-benzimidazole-4-carbonitrile, Acetic Acid Salt (1:1)]
- solubility in water [1]: about 135 mg/mL

Structure (SMILES): Cc1c(N=C2NCCN2)cc(C#N)c2[nH]cnc12 [Free Base Form, 6-[(4,5-Dihydro-1H-imidazol-2-yl)amino-]-7-methyl-1H-benzimidazole-4-carbonitrile]
- solubility ([1]; water, thermodynamic from solid): ~400 µg/mL (≈ 1660 µM)

Structure (SMILES): Cc1c(NC2=NCCN2)cc(C#N)c2nc[nH]c12 [Sulfate Salt Form, 6-[(4,5-Dihydro-1H-imidazol-2-yl)amino-]-7-methyl-1H-benzimidazole-4-carbonitrile, reference compound]
- solubility in water ([1]; water, ambient temperature): about 4 mg/mL

Structure (SMILES): Cc1c(N)cc(C#N)c2nc3c(C#N)c(N)c(N)c(C)c3nc12 [compound 2, 2,3,7-triamino-4,6-dimethyl-1,9-phenazinedicarbonitrile]
- level of the impurity at which a positive response is elicited in the Ames Test [2]: about 1 ppm
